# Source: patent US11596623B2, “Methods for treating virus infection or proliferation” (HOWARD UNIVERSITY, priority 2018, dated 2023)
# Read-outs that look alike come from different tables or passages of the source.
# What was measured:
# HEp-2 cells = test: Trypan blue exclusion cell viability; type: cell-based; conditions: 24-hour treatment
# Protocol: In order to assess whether the compounds are producing any toxicity that can led to the cell deaths, we evaluated the cell viability by the trypan blue exclusion method. As long-term inhibition of RACK1 expression has been reported to cell cycle arrest, we limited our experimental treatments to 24 h and evaluated the cell viability of almost full confluent cells after 24 h of compound treatment.
# In table 2, the viability of cells was measured with Trypan blue exclusion assay in a Cellometer (Nexcelom, Lawrence, Mass.). The percentage survival of the compound treated cells was evaluated along with the DMSO treated cells. The values represent the mean±SE of three separate well based replicates.
# HSV1-Luc (R8411) = test: HSV1-Luc bioluminescence luciferase assay in HEp-2 cells; type: cell-based, HSV-1; set-up: HSV-1 proliferation (luciferase signal): dose or concentration left out as unconfirmed
# Protocol: (A) Hep-2 cells were incubated with the indicated compounds in the presence of HSV1-Luc virus at a concentration of 4×10^6 pfu/ml media. (B) Quantification of the luciferase signal from the samples in panel (A). Signals from three replicates from two separate experiments were combined to generate the average and the standard error bar.
# (§1) To 80-90% confluent HEp-2 cells, HSV-1-Luc (R8411) are added at a concentration of 2×10e^6 pfu/ml along with indicated concentration of inhibitor compounds. After the described incubation period, luciferase activity is evaluated from bioluminescence images acquired by a Perkin Elmer IVIS Spectrum Imaging system immediately after adding luciferase substrate (D-luciferin, Gold Bio Technology) at a concentration of 400 μg/mL in medium. Bioluminescence intensity in different wells is quantified in units of photons per second per centimetre squared per steradian (p/s/cm^2/sr) by drawing a polygonal region of interest over the signals in images using Living Image 3.0 software (Caliper Life Sciences).
# as §1, with “cells, HSV1-Luc” for “cells, HSV-1-Luc”, “(R8411) was” for “(R8411) are”, “activity was” for “activity is”, “wells was” for “wells is”, “per centimeter” for “per centimetre”
# To visualize the effect of the drugs on the proliferation of HSV-1, a luciferase tagged HSV-1 F strain expressing luciferase (R8411 mutant) under the control of ICP27 promoter was obtained [Horsburgh B C, Hubinette M M, Tufaro F. Genetic manipulation of herpes simplex virus using bacterial artificial chromosomes. Methods Enzymol. 1999; 306:337-52]. […] The same samples after incubation of 48 h were used to assay for HSV-1 ICP0 and RACK1 protein expression (B of FIG. 5). Depletion of RACK1 by the compounds correlated with the depletion of the viral ICP0 protein confirming earlier results shown in B of FIG. 3.
# [1] = target: T1, RACK1A Y248 phosphorylation (Arabidopsis thaliana, UniProt O24456); test: ABA-induced RACK1A Y248 phosphorylation in seedlings, western blot; type: in vivo; conditions: 10 μM ABA, 12 hours, one-week old seedlings
# T1 construct: from tissue; host or cells: Arabidopsis seedlings or plants (wild type); lysates
# Protocol: One-week old Arabidopsis seedlings were treated with 10 μM of stress hormone Abscisic acid (ABA) in the presence/absence of the inhibitor compounds for 12 hours in a growth chamber (overnight) at 22° C. Lysates were probed with an antibody raised to detect phosphorylated Y248 residue of RACK1A protein in Arabidopsis. Lysates from rack1a-1 knock-out mutant seedlings grown and treated similarly as the wild-type seedlings were used as a negative control. The compounds were dissolved in DMSO (D) and ABA was dissolved in methanol (M).
# Proteins were separated by SDS-PAGE (25 μg loaded in each lane), transferred to nitrocellulose membranes (Amersham Inc., Piscataway, N.J., USA), and blocked with 5% nonfat milk for 60 min at room temperature. Membranes were incubated overnight at 4° C. with primary antibody, followed by incubation with a horseradish peroxidase-coupled secondary antibody and detection with enhanced chemiluminescence (Pierce, Rockford, Ill., USA), according to standard methods. Membranes were stripped with stripping buffer (100 mM 2-mercaptoethanol, 2% SDS, 62.5 mM Tris-HCl, pH 6.8), washed with PBS-0.1% Tween-20, and used to detect additional proteins. For Arabidopsis lysates one-week old seedlings were treated with 10 uM of ABA in the presence/absence of the inhibitor compounds for 12 hours in a growth chamber (overnight) at 22° C. mostly in the dark. […]
# T1 sequence (O24456 whole entry): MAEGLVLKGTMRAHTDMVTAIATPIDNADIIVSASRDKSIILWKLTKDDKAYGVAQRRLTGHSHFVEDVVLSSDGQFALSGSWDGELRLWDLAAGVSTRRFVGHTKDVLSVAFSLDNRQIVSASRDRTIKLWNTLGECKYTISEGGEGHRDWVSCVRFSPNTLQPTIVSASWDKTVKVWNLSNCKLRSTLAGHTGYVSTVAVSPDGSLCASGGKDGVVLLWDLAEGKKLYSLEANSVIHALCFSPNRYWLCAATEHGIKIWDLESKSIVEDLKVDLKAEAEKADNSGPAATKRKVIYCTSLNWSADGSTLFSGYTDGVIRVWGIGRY
smiles,measurement,setting,value
Nn1c(S)nnc1-c1cc(Cl)cc(Cl)c1 [SD29-14],"HEp-2 Cell viability, Mean",HEp-2 cells; 10 μM,97.5%
same,"HEp-2 Cell viability, Mean",HEp-2 cells; 100 μM,93.7%
same,HSV-1 proliferation (luciferase signal),HSV1-Luc (R8411),significantly inhibited the HSV-1 proliferation
same,efficacy compared with acyclovir,"HSV1-Luc (R8411); HSV1-Luc, acyclovir 10 μM",slightly higher level
same,HSV-1 proliferation (luciferase signal),"HSV1-Luc (R8411); co-treatment of compound and virus, dose series",strong inhibition of HSV-1 proliferation in a dose dependent manner
same,concentration from which inhibition of HSV-1 (HSV1-Luc) proliferation starts,"HSV1-Luc (R8411); in vitro, luciferase signal",1 µM
same,efficacy relative to SD-29,"HSV1-Luc (R8411); starting concentration, HSV-1 luciferase signal",100 times
same,ABA-induced RACK1A Y248 phosphorylation,[1],prevented the ABA-induced Y248 phosphorylation
Nn1c(S)nnc1-c1ccc(F)cc1 [SD-29],"HEp-2 Cell viability, Mean",HEp-2 cells; 10 μM,94.0%
same,"HEp-2 Cell viability, Mean",HEp-2 cells; 100 μM,92.7%
same,HSV-1 proliferation (luciferase signal),HSV1-Luc (R8411),much less efficacy
same,ABA-induced RACK1A Y248 phosphorylation,[1],prevented the ABA-induced Y248 phosphorylation
